Legend:
Type in all cases: physicochemical
[1] = Glass transition temperature by differential scanning calorimetry (DSC); conditions: for glass transition temperature (Tg) compared with glycopyrronium bromide: comparison with glycopyrronium bromide (1)
[2] = Characterisation of moisture sorption (hygroscopicity) of the amorphous form; conditions: sorption of moisture at low relative humidity
From the text: Part of the development of glycopyrronium bromide involves milling of the active substance down to a particle size suitable for use in a dry powder inhalation formulation. […] This material becomes sticky upon sorption of moisture at low relative humidity (RH), and then finally crystallises to a non-hygoscopic hard crystalline substance.
The amorphous form of glycopyrronium iodide (2), for example, can be formed by physical techniques such as spray drying or lyophylisation and its sorption behaviour studied by dynamic vapour sorption (DVS) varying RH over time.

[3] = TG-FTIR thermal stability (weight loss / degradation)

Compound | glass transition temperature (Tg) ([1]; amorphous material, determined by DSC) [°C] | hygroscopicity of the amorphous form [2] | glass transition temperature (Tg) compared with glycopyrronium bromide [1] | TG-FTIR weight loss / degradation [3] | Tg (glass transition) ([1]; lyophilized material, DSC second scan) [°C]
C[N+]1(C)CCC(OC(=O)C(O)(c2ccccc2)C2CCCC2)C1 (stereo not drawn) [glycopyrronium bromide, reference compound] | 64.9 | highly hygroscopic | – | – | –
Glycopyrronium Sulphate | – | – | lower glass transition temperature (Tg) than glycopyrronium bromide | no significant weight loss below 200° C., degrades above this temperature | –
Glycopyrronium Acetate | – | – | lower glass transition temperature (Tg) than glycopyrronium bromide | no significant weight loss below 200° C., degrades above this temperature | –
Glycopyrronium Iodide | – | – | lower glass transition temperature (Tg) than glycopyrronium bromide | no significant weight loss below 200° C., degrades above this temperature | 55
